Experiment [1] addresses T1, GLS1 (purified recombinant human GAC) (Homo sapiens, UniProt O94925).
T1 sequence (O94925 55-598 isoform O94925-3 limits assumed): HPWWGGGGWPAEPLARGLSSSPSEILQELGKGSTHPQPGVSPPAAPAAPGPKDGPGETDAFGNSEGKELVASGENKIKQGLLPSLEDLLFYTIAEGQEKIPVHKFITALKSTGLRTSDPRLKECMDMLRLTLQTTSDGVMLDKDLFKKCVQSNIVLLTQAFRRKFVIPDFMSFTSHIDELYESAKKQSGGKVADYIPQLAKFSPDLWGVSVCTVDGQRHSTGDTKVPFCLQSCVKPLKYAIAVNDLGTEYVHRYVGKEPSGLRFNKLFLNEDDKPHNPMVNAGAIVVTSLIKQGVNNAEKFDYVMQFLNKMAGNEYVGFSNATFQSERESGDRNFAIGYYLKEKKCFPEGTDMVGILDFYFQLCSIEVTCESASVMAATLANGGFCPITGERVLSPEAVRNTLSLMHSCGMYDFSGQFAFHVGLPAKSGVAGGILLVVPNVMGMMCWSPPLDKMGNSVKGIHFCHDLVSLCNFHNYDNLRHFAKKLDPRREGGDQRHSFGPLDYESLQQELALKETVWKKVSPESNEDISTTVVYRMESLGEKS
The experiment in a line: GLS1 enzymatic activity assay (dual-coupled, Amplex UltraRed/resorufin). It is filed as biochemical. Summed up: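 GAC activity measured by coupling glutamate to glutamate oxidase and HRP, generating resorufin from Amplex UltraRed. Enzyme (2 nM) preincubated with 50 mM potassium phosphate 10 min at room temperature, then inhibitor 10 min; 1 mM glutamine substrate, 1% DMSO. Fluorescence 530/590 nm, kinetic or 20-min endpoint; IC50 from four-parameter logistic fit.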

Experiment [2] concerns A549 cells. Description: A549 proliferation (viability) assay, Cell Titer Fluor, 72 hours. It is filed as cell-based. As to conditions: Homo sapiens. Put shortly: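 A549 cells in RPMI 1640 with 10% dialyzed FBS were seeded at 1000 cells/well, grown 24 h, then exposed to compound (0.5% DMSO final) for 72 h at 37 °C, 5% CO2. Viability was read by Cell Titer Fluor fluorescence; EC50 from four-parameter logistic fit.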

pEC50, pIC50: −log10 of the molar value. A value given as a limit tells only on which side of the number the result lay.

With `O=C(Cc1cccc(N2CCOCC2)c1)Nc1ccn(CCC(F)Cn2cc(C(=O)NCc3cccc(OC(F)(F)F)c3)nn2)c(=O)c1` (centres unmarked) [Example 237, 1-[2-fluoro-4-(4-{2-[3-(morpholin-4-yl)phenyl]acetamido}-2-oxo-1,2-dihydropyridin-1-yl)butyl]-N-{[3-(trifluoromethoxy)phenyl]methyl}-1H-1,2,3-triazole-4-carboxamide], the pIC50 in experiment [1] was more than 7.00. This compound also gave a negative logarithm of the EC50 (pEC50) in experiment [2] of 6.30 to 7.00.
The corresponding values for `O=C(Cc1ccc(Cl)nc1)Nc1ccn(CCC(F)Cn2cc(C(=O)NCc3cccc(OC(F)(F)F)c3)nn2)c(=O)c1` (centres unmarked) [Example 238, 1-(4-{4-[2-(6-chloropyridin-3-yl)acetamido]-2-oxo-1,2-dihydropyridin-1-yl}-2-fluorobutyl)-N-{[3-(trifluoromethoxy)phenyl]methyl}-1H-1,2,3-triazole-4-carboxamide] are more than 7.00 and 6.30 to 7.00.
For the compound `CC(C)(C)OC(=O)N[C@H]1CC[C@H](CC(=O)Nc2ccn(CCC(F)Cn3cc(C(=O)NCc4cccc(OC(F)(F)F)c4)nn3)c(=O)c2)CC1` (some centres unmarked) [Example 239, tert-butyl N-[(1r,4r)-4-{[(1-{3-fluoro-4-[4-({[3-(trifluoromethoxy)phenyl]methyl}carbamoyl)-1H-1,2,3-triazol-1-yl]butyl}-2-oxo-1,2-dihydropyridin-4-yl)carbamoyl]methyl}cyclo-hexyl]carbamate], in experiment [1], the pIC50 was more than 7.00. The pEC50 in experiment [2] was more than 7.00.
As for `COc1ccc(CC(=O)Nc2ccn(CCC(F)Cn3cc(C(=O)NCc4cccc(OC(F)(F)F)c4)nn3)c(=O)c2)cn1` (centres unmarked) [Example 240, 1-(2-fluoro-4-{4-[2-(6-methoxypyridin-3-yl)acetamido]-2-oxo-1,2-dihydropyridin-1-yl}butyl)-N-{[3-(trifluoromethoxy)phenyl]methyl}-1H-1,2,3-triazole-4-carboxamide], the pIC50 in experiment [1] is more than 7.00. Moreover, the pEC50 in experiment [2] is 5.30 to 6.30.
On the same counts, the results for `CC(C)(C)OC(=O)N[C@H]1CC[C@@H](CC(=O)Nc2ccn(CCC(F)Cn3cc(C(=O)NCc4cccc(OC(F)(F)F)c4)nn3)c(=O)c2)CC1` (some centres unmarked) [Example 241, tert-butyl N-[(1s,4s)-4-{[(1-{3-fluoro-4-[4-({[3-(trifluoromethoxy)phenyl]methyl}carbamoyl)-1H-1,2,3-triazol-1-yl]butyl}-2-oxo-1,2-dihydropyridin-4-yl)carbamoyl]methyl}cyclohexyl]carbamate] are more than 7.00 and more than 7.00.
The corresponding values for `O=C(CC1CCN(CC(F)F)CC1)Nc1ccn(CCC(F)Cn2cc(C(=O)NCc3cccc(OC(F)(F)F)c3)nn2)c(=O)c1` (centres unmarked) [Example 242, 1-[4-(4-{2-[1-(2,2-difluoroethyl)piperidin-4-yl]acetamido}-2-oxo-1,2-dihydropyridin-1-yl)-2-fluorobutyl]-N-{[3-(trifluoromethoxy)phenyl]methyl}-1H-1,2,3-triazole-4-carboxamide] are more than 7.00 and 6.30 to 7.00.
On the same counts, the results for `O=C(Cc1ncc(Cl)cc1F)Nc1ccn(CCC(F)Cn2cc(C(=O)NCc3cccc(OC(F)(F)F)c3)nn2)c(=O)c1` (centres unmarked) [Example 243, 1-(4-{4-[2-(5-chloro-3-fluoropyridin-2-yl)acetamido]-2-oxo-1,2-dihydropyridin-1-yl}-2-fluorobutyl)-N-{[3-(trifluoromethoxy)phenyl]methyl}-1H-1,2,3-triazole-4-carboxamide] are more than 7.00 and 6.30 to 7.00.
As for `CC(=O)N1CCC(CC(=O)Nc2ccn(CCC(F)Cn3cc(C(=O)NCc4cccc(OC(F)(F)F)c4)nn3)c(=O)c2)CC1` (centres unmarked) [Example 244, 1-(4-{4-[2-(1-acetylpiperidin-4-yl)acetamido]-2-oxo-1,2-dihydropyridin-1-yl}-2-fluorobutyl)-N-{[3-(trifluoromethoxy)phenyl]methyl}-1H-1,2,3-triazole-4-carboxamide], in experiment [1], the negative-log IC50 (pIC50) is more than 7.00. Moreover, in experiment [2], the pEC50 is 5.30 to 6.30.
As to `CC(C)(C)OC(=O)N1CCCC(CC(=O)Nc2ccn(CCC(F)Cn3cc(C(=O)NCc4cccc(OC(F)(F)F)c4)nn3)c(=O)c2)C1` (centres unmarked) [Example 245, tert-butyl 3-{[(1-{3-fluoro-4-[4-({[3-(trifluoromethoxy)phenyl]methyl}carbamoyl)-1H-1,2,3-triazol-1-yl]butyl}-2-oxo-1,2-dihydropyridin-4-yl)carbamoyl]methyl}piperidine-1-carboxylate], the pIC50 in experiment [1] is more than 7.00. This compound also gave a negative-log EC50 (pEC50) in experiment [2] of more than 7.00.
Consider `O=C(Cc1cccnc1)Nc1ccn(CCC(F)Cn2cc(C(=O)NCc3cccc(OC(F)(F)F)c3)nn2)c(=O)c1` (centres unmarked) [Example 246, 1-(2-fluoro-4-{2-oxo-4-[2-(pyridin-3-yl)acetamido]-1,2-dihydropyridin-1-yl}butyl)-N-{[3-(trifluoromethoxy)phenyl]methyl}-1H-1,2,3-triazole-4-carboxamide], for which the pIC50 in experiment [1] was more than 7.00. In experiment [2], the pEC50 was 5.30 to 6.30.
With `O=C(Cc1cscn1)Nc1ccn(CCC(F)Cn2cc(C(=O)NCc3cccc(OC(F)(F)F)c3)nn2)c(=O)c1` (centres unmarked) [Example 247, 1-(2-fluoro-4-{2-oxo-4-[2-(1,3-thiazol-4-yl)acetamido]-1,2-dihydropyridin-1-yl}butyl)-N-{[3-(trifluoromethoxy)phenyl]methyl}-1H-1,2,3-triazole-4-carboxamide], the pIC50 in experiment [1] was more than 7.00. The pEC50 in experiment [2] was 5.30 to 6.30.
Regarding `Cc1ccc(CC(=O)Nc2ccn(CCC(F)Cn3cc(C(=O)NCc4cccc(OC(F)(F)F)c4)nn3)c(=O)c2)cn1` (centres unmarked) [Example 248, 1-(2-fluoro-4-{4-[2-(6-methylpyridin-3-yl)acetamido]-2-oxo-1,2-dihydropyridin-1-yl}butyl)-N-{[3-(trifluoromethoxy)phenyl]methyl}-1H-1,2,3-triazole-4-carboxamide], the pIC50 in experiment [1] is more than 7.00. The negative-log EC50 (pEC50) in experiment [2] was 5.30 to 6.30.
On the same counts, the results for `CC(C)(C)OC(=O)N[C@@H]1CCC[C@@H](C(=O)Nc2ccn(CCC(F)Cn3cc(C(=O)NCc4cccc(OC(F)(F)F)c4)nn3)c(=O)c2)C1` (stereo partly drawn) [Example 249, tert-butyl N-[(1R,3R)-3-[(1-{3-fluoro-4-[4-({[3-(trifluoromethoxy)phenyl]methyl}carbamoyl)-1H-1,2,3-triazol-1-yl]butyl}-2-oxo-1,2-dihydropyridin-4-yl)carbamoyl]cyclohexyl]carbamate] are more than 7.00 and more than 7.00.
On to `O=C(Cc1ccccn1)Nc1ccn(CCC(F)Cn2cc(C(=O)NCc3cccc(OC(F)(F)F)c3)nn2)c(=O)c1` (centres unmarked) [Example 250, 1-(2-fluoro-4-{2-oxo-4-[2-(pyridin-2-yl)acetamido]-1,2-dihydropyridin-1-yl}butyl)-N-{[3-(trifluoromethoxy)phenyl]methyl}-1H-1,2,3-triazole-4-carboxamide], for which, in experiment [1], the pIC50 was more than 7.00. This compound gave a pEC50 in experiment [2] of 6.30 to 7.00.
The corresponding values for `COc1cccc(CC(=O)Nc2ccn(CCC(F)Cn3cc(C(=O)NCc4cccc(OC(F)(F)F)c4)nn3)c(=O)c2)n1` (centres unmarked) [Example 251, 1-(2-fluoro-4-{4-[2-(6-methoxypyridin-2-yl)acetamido]-2-oxo-1,2-dihydropyridin-1-yl}butyl)-N-{[3-(trifluoromethoxy)phenyl]methyl}-1H-1,2,3-triazole-4-carboxamide] are more than 7.00 and 6.30 to 7.00.
The corresponding values for `O=C(Cc1nccs1)Nc1ccn(CCC(F)Cn2cc(C(=O)NCc3cccc(OC(F)(F)F)c3)nn2)c(=O)c1` (centres unmarked) [Example 252, 1-(2-fluoro-4-{2-oxo-4-[2-(1,3-thiazol-2-yl)acetamido]-1,2-dihydropyridin-1-yl}butyl)-N-{[3-(trifluoromethoxy)phenyl]methyl}-1H-1,2,3-triazole-4-carboxamide] are more than 7.00 and 6.30 to 7.00.
For the compound `O=C(Cc1ccc2ccccc2n1)Nc1ccn(CCC(F)Cn2cc(C(=O)NCc3cccc(OC(F)(F)F)c3)nn2)c(=O)c1` (centres unmarked) [Example 253, 1-(2-fluoro-4-{2-oxo-4-[2-(quinolin-2-yl)acetamido]-1,2-dihydropyridin-1-yl}butyl)-N-{[3-(trifluoromethoxy)phenyl]methyl}-1H-1,2,3-triazole-4-carboxamide], the negative logarithm of the IC50 (pIC50) in experiment [1] is more than 7.00. In addition, the pEC50 in experiment [2] is 5.30 to 6.30.
On the same counts, the results for `CCOC(=O)N1CCN(CC(=O)Nc2ccn(CCC(F)Cn3cc(C(=O)NCc4cccc(OC(F)(F)F)c4)nn3)c(=O)c2)CC1` (centres unmarked) [Example 255, ethyl 4-{[(1-{3-fluoro-4-[4-({[3-(trifluoromethoxy)phenyl]methyl}carbamoyl)-1H-1,2,3-triazol-1-yl]butyl}-2-oxo-1,2-dihydropyridin-4-yl)carbamoyl]methyl}piperazine-1-carboxylate] are more than 7.00 and more than 7.00.
Take `N#CC1CCN(CC(=O)Nc2ccn(CCC(F)Cn3cc(C(=O)NCc4cccc(OC(F)(F)F)c4)nn3)c(=O)c2)CC1` (centres unmarked) [Example 256, 1-(4-{4-[2-(4-cyanopiperidin-1-yl)acetamido]-2-oxo-1,2-dihydropyridin-1-yl}-2-fluorobutyl)-N-{[3-(trifluoromethoxy)phenyl]methyl}-1H-1,2,3-triazole-4-carboxamide]: in experiment [1], the pIC50 is more than 7.00. Also, in experiment [2], the negative-log EC50 (pEC50) was 5.30 to 6.30.

The values above are taken from patent publication US20160002204A1 (Board of Regents, The University of Texas System, priority 2014, published 2016).
